# In patent EP0222670A1, “Dissolved composition of (benzo-1,2,4-thiadiazine)-1,1-dioxide” (SHISEIDO COMPANY LIMITED, priority 1985, dated 1987):
# Assay: solubilities of the dioxide in various solvents at room temperature
# Assay type: physicochemical
# Design: key: completely and transparently dissolved; x: partially not dissolved, with presence of crystals
# From the text: The solubilities of 7-chloro-3-methyl-2H[benzo-l,2,4-thiadiazine]-l,l-dioxide in various solvents at room temperature are shown in Table l.
# • *l: The dioxide is 7-chloro-3-methyl-2H-[benzo-l,2,4-thiadiazine]-l,l-dioxide • *2: Dipropylene glycol
# In the Table, o: completely and transparently dissolved; x: partially not dissolved, with presence of crystals.
substance,measurement,setting,value
"7-chloro-3-methyl-2H-[benzo-l,2,4-thiadiazine]-l,l-dioxide",solubility of Dioxide in solvent,"solvent BA, Dioxide 0.2 % by weight",o
same,solubility of Dioxide in solvent,"solvent BA, Dioxide 1.0 % by weight",o
same,solubility of Dioxide in solvent,"solvent BA, Dioxide 2.0 % by weight",x
same,solubility of Dioxide in solvent,"solvent BA, Dioxide 3.0 % by weight",x
same,solubility of Dioxide in solvent,"solvent BA/IPA = 1/9, Dioxide 0.2 % by weight",o
same,solubility of Dioxide in solvent,"solvent BA/IPA = 1/9, Dioxide 1.0 % by weight",o
same,solubility of Dioxide in solvent,"solvent BA/IPA = 1/9, Dioxide 2.0 % by weight",x
same,solubility of Dioxide in solvent,"solvent BA/IPA = 1/9, Dioxide 3.0 % by weight",x
same,solubility of Dioxide in solvent,"solvent BA/IPA/aqueous alkali solution (pH = 10) = 1/3/6, Dioxide 0.2 % by weight",o
same,solubility of Dioxide in solvent,"solvent BA/IPA/aqueous alkali solution (pH = 10) = 1/3/6, Dioxide 1.0 % by weight",o
same,solubility of Dioxide in solvent,"solvent BA/IPA/aqueous alkali solution (pH = 10) = 1/3/6, Dioxide 2.0 % by weight",o
same,solubility of Dioxide in solvent,"solvent BA/IPA/aqueous alkali solution (pH = 10) = 1/3/6, Dioxide 3.0 % by weight",o
same,solubility of Dioxide in solvent,"solvent DMSO, Dioxide 0.2 % by weight",o
same,solubility of Dioxide in solvent,"solvent DMSO, Dioxide 1.0 % by weight",o
same,solubility of Dioxide in solvent,"solvent DMSO, Dioxide 2.0 % by weight",o
same,solubility of Dioxide in solvent,"solvent DMSO, Dioxide 3.0 % by weight",o
same,solubility of Dioxide in solvent,"solvent DPG (Dipropylene glycol), Dioxide 0.2 % by weight",x
same,solubility of Dioxide in solvent,"solvent DPG (Dipropylene glycol), Dioxide 1.0 % by weight",x
same,solubility of Dioxide in solvent,"solvent DPG (Dipropylene glycol), Dioxide 2.0 % by weight",x
same,solubility of Dioxide in solvent,"solvent DPG (Dipropylene glycol), Dioxide 3.0 % by weight",x
same,solubility of Dioxide in solvent,"solvent Ethyl alcohol, Dioxide 0.2 % by weight",x
same,solubility of Dioxide in solvent,"solvent Ethyl alcohol, Dioxide 1.0 % by weight",x
same,solubility of Dioxide in solvent,"solvent Ethyl alcohol, Dioxide 2.0 % by weight",x
same,solubility of Dioxide in solvent,"solvent Ethyl alcohol, Dioxide 3.0 % by weight",x
same,solubility of Dioxide in solvent,"solvent IPA, Dioxide 0.2 % by weight",o
same,solubility of Dioxide in solvent,"solvent IPA, Dioxide 1.0 % by weight",x
same,solubility of Dioxide in solvent,"solvent IPA, Dioxide 2.0 % by weight",x
same,solubility of Dioxide in solvent,"solvent IPA, Dioxide 3.0 % by weight",x
same,solubility of Dioxide in solvent,"solvent IPA/DPG = 1/1, Dioxide 0.2 % by weight",o
same,solubility of Dioxide in solvent,"solvent IPA/DPG = 1/1, Dioxide 1.0 % by weight",x
same,solubility of Dioxide in solvent,"solvent IPA/DPG = 1/1, Dioxide 2.0 % by weight",x
same,solubility of Dioxide in solvent,"solvent IPA/DPG = 1/1, Dioxide 3.0 % by weight",x
same,solubility of Dioxide in solvent,"solvent IPA/DPG/aqueous alkali solution (pH = 10) = 2/1/1, Dioxide 0.2 % by weight",o
same,solubility of Dioxide in solvent,"solvent IPA/DPG/aqueous alkali solution (pH = 10) = 2/1/1, Dioxide 1.0 % by weight",o
same,solubility of Dioxide in solvent,"solvent IPA/DPG/aqueous alkali solution (pH = 10) = 2/1/1, Dioxide 2.0 % by weight",o
same,solubility of Dioxide in solvent,"solvent IPA/DPG/aqueous alkali solution (pH = 10) = 2/1/1, Dioxide 3.0 % by weight",o
